This note sets out measurements from ChEMBL document CHEMBL1140991, “Synthesis and testing of peptides for anti-prion activity” (Eur J Med Chem, 2008).

The subject of test [1] is brain. The test can be described thus: Antiprion activity against Scrapie prion protein-infected mouse brain cells assessed as remaining PrP-res level at 100 uM after 4 days by Western blotting relative to control. Type of test: tissue-based.
For test [2], the target named is Major prion protein (Mus musculus) (UniProt P04925). The test can be described thus: Inhibition of manganese-induced aggregation in mouse recombinant PrP assessed as PrP-res formation at 100 uM after 30 mins relative to control. Also noted: scale not given: the % may be the effect or the level left.
Major prion protein (Mus musculus), sequence (P04925 whole entry): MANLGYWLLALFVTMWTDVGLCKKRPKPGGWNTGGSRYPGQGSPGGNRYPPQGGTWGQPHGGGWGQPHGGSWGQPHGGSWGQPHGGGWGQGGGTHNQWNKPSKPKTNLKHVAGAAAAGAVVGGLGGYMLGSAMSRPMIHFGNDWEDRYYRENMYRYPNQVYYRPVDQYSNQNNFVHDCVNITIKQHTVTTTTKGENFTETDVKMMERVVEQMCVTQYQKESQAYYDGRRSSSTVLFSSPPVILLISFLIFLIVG
For test [3] the target is unchanged. The test can be described thus: Inhibition of mouse recombinant PrP interaction with scrapie mouse brain PrP-res assessed as PrP-res formation at 100 uM after 30 mins by aggregation assay relative to control.
The test system of test [4] is brain. The test can be described thus: Antiprion activity against Scrapie prion protein-infected mouse brain cells assessed as remaining PrP-res level at 10 uM after 4 days by Western blotting relative to control. Type of test: tissue-based.

Peptide text beside a SMILES is read from it.

Take `C[C@H](NC(=O)CNC(=O)[C@H](C)NC(=O)[C@@H](C)N)C(=O)N[C@@H](C)C(=O)N[C@@H](C)C(=O)N1CCC[C@H]1C(N)=O`: the Activity in the test with brain [1] was found to be 206%.
For the compound `C[C@H](NC(=O)[C@@H]1CCCN1C(=O)[C@@H]1CCCN1)C(N)=O` (H-Pro-Pro-Ala-NH2), the Activity in test [2] is 125%; in the test on brain [1], 10%.
In the case of `NCC(=O)N1CCC[C@H]1C(=O)N1CCC[C@H]1C(N)=O` (H-Gly-Pro-Pro-NH2), the Activity in test [2] amounted to 81%; with brain [1], 25%.
For `C[C@H](NC(=O)[C@H](C)NC(=O)[C@@H]1CCCN1)C(N)=O` (H-Pro-Ala-Ala-NH2), the figures for the Activity (in test [2]; in the test with brain [1]) were 88% and 51%, respectively.
In the case of H-HAAGAAAAGA-NH2, the values for the Activity (in test [2]; with brain [1]) were 59% and 39%, respectively.
Regarding H-KHPAGAAAAGAVV-NH2, the Activity in test [2] was found to be 73%; with brain [1], 68%.
For H-AAGAAAAGAV-NH2, in that order: 57% and 133%.
The like results for H-HAAGAAAPGAV-NH2 were, in that order, 64% and 32%.
Regarding `C[C@H](NC(=O)[C@H](C)NC(=O)[C@H](C)NC(=O)[C@H](C)NC(=O)[C@@H]1CCCN1C(=O)[C@H](C)NC(=O)[C@@H](C)N)C(N)=O`, the Activity in test [2] stood at 2%; in the test on brain [1] it was 195%. Besides, in test [3], the PrP-res formation relative to control stood at 2%.
As to `C[C@H](NC(=O)CNC(=O)[C@H](C)NC(=O)[C@H](C)NC(=O)[C@H](C)NC(=O)[C@H](C)NC(=O)[C@@H]1CCCN1C(=O)[C@H](C)NC(=O)[C@@H](C)N)C(N)=O`, the figures for the Activity (in test [2]; in the test on brain [1]) were 103% and 66%, respectively.
With H-GAAAPG-NH2, the values for the Activity (in test [2]; with brain [1]) were 111% and 124%, respectively.
For H-KHAAGAAAAGA-NH2, in that order: 102% and 59%.
With `CC(C)[C@H](NC(=O)[C@@H](NC(=O)[C@H](C)NC(=O)CNC(=O)[C@H](C)NC(=O)[C@H](C)NC(=O)[C@H](C)NC(=O)[C@H](C)NC(=O)[C@@H]1CCCN1C(=O)[C@H](C)NC(=O)[C@@H](C)N)C(C)C)C(N)=O`, the figures for the Activity (in test [2]; in the test on brain [1]) were 22% and 14%, respectively. The PrP-res formation relative to control in test [3] is 22%. The Remaining PrP-res level in the test on brain [4] amounted to 131%.
As for H-KHAAPAAAAGAVV-NH2, the results for the Activity (in test [2]; in the test with brain [1]) were 44% and 68%, respectively. In test [3], the PrP-res formation relative to control was determined as 44%.
As for H-KHAAGAAAAGAVV-NH2, the values for the Activity (in test [2]; with brain [1]) were 112% and 93%, respectively.
For `C[C@H](NC(=O)CNC(=O)[C@@H]1CCCN1C(=O)[C@H](C)NC(=O)[C@H](C)NC(=O)[C@H](C)NC(=O)[C@@H]1CCCN1C(=O)[C@H](C)NC(=O)[C@@H](C)N)C(N)=O`, in that order: 85% and 33%.
Take H-KHAAPAAAAGA-NH2: the values for the Activity (in test [2]; in the test on brain [1]) were 73% and 70%, respectively.
For `C[C@H](NC(=O)[C@@H]1CCCN1C(=O)[C@H](C)NC(=O)CN)C(=O)O` (H-GAPA-OH), in that order: 266% and 47%.
Regarding `C[C@H](NC(=O)CNC(=O)[C@H](C)NC(=O)[C@@H](C)N)C(=O)N[C@@H](C)C(=O)N[C@@H](C)C(=O)N1CCC[C@H]1C(=O)NCC(=O)N1CCC[C@H]1C(N)=O`, the Activity in test [2] is 27%; with brain [1], 88%.
As to `C[C@H](NC(=O)CNC(=O)[C@H](C)NC(=O)[C@@H](C)N)C(=O)N[C@@H](C)C(=O)N[C@@H](C)C(=O)N1CCC[C@H]1C(=O)NCC(N)=O`, the Activity in test [2] was determined as 2%; with brain [1], 108%. In addition, the PrP-res formation relative to control in test [3] turned out to be 2%.
For the compound H-PAGAAAA-NH2, in the test with brain [1], the Activity was 71%.
On to `C[C@H](NC(=O)[C@@H]1CCCN1C(=O)[C@@H](C)N)C(N)=O`, for which the Activity was 148% in test [2] and 45% with brain [1].
Turning to H-HPAGAAAAGAV-NH2, the Activity is 74% in test [2] and 135% in the test with brain [1].
The like results for `C[C@H](NC(=O)[C@@H](C)N)C(=O)N1CCC[C@H]1C(=O)NCC(N)=O` were, in that order, 88% and 100%.
For the compound H-PAGAAAAG-NH2, the Activity came out at 130% in test [2] and 10% with brain [1]. Moreover, the Remaining PrP-res level in the test on brain [4] turned out to be 158%.
For H-GPAAPG-NH2, the Activity in test [2] turned out to be 48%; in the test with brain [1], 261%.
As for `C[C@H](NC(=O)CN)C(=O)N1CCC[C@H]1C(N)=O` (H-Gly-Ala-Pro-NH2), the results for the Activity (in test [2]; in the test with brain [1]) were 111% and 32%, respectively.
Consider `CC(C)[C@H](NC(=O)[C@H](C)NC(=O)CNC(=O)[C@H](C)NC(=O)[C@H](C)NC(=O)[C@H](C)NC(=O)[C@H](C)NC(=O)[C@@H]1CCCN1C(=O)[C@H](C)NC(=O)[C@@H](C)N)C(N)=O`, for which the Activity in test [2] was determined as 28%; with brain [1], 148%.
The like results for H-HAAPAAAAGA-NH2 were, in that order, 93% and 151%.
With H-HPAGAAAAGA-NH2, the Activity in test [2] was determined as 11%; in the test on brain [1] it was 23%. Also, the PrP-res formation relative to control in test [3] came to 11%.
In the case of `C[C@H](NC(=O)[C@@H]1CCCN1)C(=O)N1CCC[C@H]1C(N)=O` (H-Pro-Ala-Pro-NH2), the Activity in test [2] turned out to be 59%; in the test with brain [1], 156%.
Consider H-PAGAAAAGA-NH2, for which the Activity in test [2] amounted to 71%; in the test on brain [1], 100%.
As to H-HAAGAAAPGA-NH2, the Activity in test [2] was 28%; with brain [1], 183%.
Regarding H-KHAAGAAAPGA-NH2, the Activity turned out to be 52% in test [2] and 44% in the test with brain [1].
For the compound H-AAGAAAAGAVV-NH2, the Activity in test [2] was found to be 17%; in the test with brain [1] it was 34%. The PrP-res formation relative to control in test [3] turned out to be 17%. The Remaining PrP-res level in the test on brain [4] was 200%.
Regarding H-KHPAGAAAAGA-NH2, the Activity was 19% in test [2] and 83% with brain [1].
For H-KHAAGAAAPGAVV-NH2, the Activity in test [2] was found to be 86%; with brain [1], 7%. Also, the Remaining PrP-res level with brain [4] turned out to be 108%.
For H-GAAAPP-NH2, the Activity in test [2] is 148%; with brain [1], 30%.
Turning to H-GAAPPG-NH2, the Activity amounted to 240% in test [2] and 5% with brain [1].
For H-MAGAAAAGA-NH2, in that order: 104% and 89%.
In the case of H-HAAGAAAAGAV-NH2, the Activity is 34% in test [2] and 74% with brain [1].
Consider `C[C@H](NC(=O)CNC(=O)[C@@H]1CCCN1C(=O)[C@H](C)NC(=O)[C@H](C)NC(=O)[C@H](C)NC(=O)CNC(=O)[C@@H]1CCCN1C(=O)[C@@H](C)N)C(N)=O`, for which the Activity in test [2] was determined as 89%; in the test on brain [1], 7%.
For the compound H-AAGAAAAGA-NH2, the Activity in test [2] was determined as 76%; in the test with brain [1] it was 56%.
Regarding H-AAGAAAA-NH2, the Activity in the test with brain [1] came out at 65%.
H-GAPAPG-NH2: the values for the Activity (in test [2]; in the test with brain [1]) were 85% and 52%, respectively.
With H-HAAPAAAAGAV-NH2, the Activity in test [2] came out at 38%; with brain [1], 225%.
As to H-PAGAAAAGAVV-NH2, the Activity came out at 28% in test [2] and 132% in the test on brain [1]. In test [3], the PrP-res formation relative to control is 28%.
On to H-PAGAAAAGAV-NH2, for which the Activity in test [2] was determined as 77%; with brain [1] it was 112%.
For H-PLGSAMSR-NH2, in that order: 11% and 45%.
In the case of `CC(C)[C@H](NC(=O)[C@@H](NC(=O)[C@H](C)NC(=O)CNC(=O)[C@@H]1CCCN1C(=O)[C@H](C)NC(=O)[C@H](C)NC(=O)[C@H](C)NC(=O)CNC(=O)[C@H](C)NC(=O)[C@@H](C)N)C(C)C)C(N)=O`, the Activity is 52% in test [2] and 5% in the test on brain [1]. Further, the PrP-res formation relative to control in test [3] was determined as 52%. The Remaining PrP-res level in the test with brain [4] was 73%.
For `C[C@H](NC(=O)CNC(=O)[C@@H]1CCCN1C(=O)[C@H](C)NC(=O)[C@H](C)NC(=O)[C@H](C)NC(=O)CNC(=O)[C@H](C)NC(=O)[C@@H](C)N)C(N)=O`, the Activity in test [2] is 27%; in the test on brain [1] it was 81%.
As for `CC(C)[C@H](NC(=O)[C@H](C)NC(=O)CNC(=O)[C@@H]1CCCN1C(=O)[C@H](C)NC(=O)[C@H](C)NC(=O)[C@H](C)NC(=O)CNC(=O)[C@H](C)NC(=O)[C@@H](C)N)C(N)=O`, the Activity in test [2] amounted to 54%; with brain [1] it was 129%.
For H-PAGAAAPGA-NH2, in that order: 56% and 79%.
The like results for H-VAGAAAAGA-NH2 were, in that order, 84% and 93%.
For the compound H-AAGAAAAG-NH2, the Activity in test [2] is 23%; in the test on brain [1], 108%. The PrP-res formation relative to control in test [3] amounted to 23%.
Take `C[C@H](NC(=O)[C@H](C)NC(=O)[C@H](C)NC(=O)[C@H](C)NC(=O)[C@@H]1CCCN1C(=O)[C@H](C)NC(=O)[C@@H](C)N)C(=O)NCC(N)=O`: the Activity in test [2] worked out at 46%; in the test on brain [1] it was 128%. Further, the PrP-res formation relative to control in test [3] worked out at 46%.
Regarding H-MLGSAPSR-NH2, the values for the Activity (in test [2]; in the test with brain [1]) were 1% and 61%, respectively.
For the compound `NC(=O)CNC(=O)[C@@H]1CCCN1C(=O)[C@@H]1CCCN1` (H-Pro-Pro-Gly-NH2), the Activity in test [2] stood at 96%; in the test on brain [1], 48%.
